Measurements reported in patent publication US12102063B2 (SYNEXIS LLC, priority 2017, dated 2024).
Values joined by “and” are separate entries in the source; they are usually repeats but may differ in a detail not shown here. Equal values may be shown once. Read-outs that look alike come from different tables or passages of the source.

What was measured:
[1] = tested on: bacteria on commercial hatching eggs; conditions: DHP about 0.1 ppm, P=0.05
Description: As a control, sixty (60) commercial eggs are placed into a biosafety cabinet with the window closed. […] Sixty (60) commercial hatching eggs (test eggs) are placed in the room and both the control and test eggs are sampled, 10 eggs each, four times over the course of five (5) days at 0 hours, 24 hours, 72 hours, and 120 hours.
(§2) For sampling, individual eggs are placed in Whirl-Pak bags containing 10 milliliters (ml) of tryptic soy broth and manually rubbed in bag for 1 minute each. The washed eggs are discarded. One (1) ml from each sample is transferred to a deep well plate in triplicate and 10 fold serial dilutions performed with tryptic soy broth to 10−^11 dilution. The deep well plates are incubated for 24 hours at 37° C. After incubation, 5 microliters (5 μl) of each well is stamped onto a 96-well plate containing either tryptic soy agar (TSA) or MacConkey (Macx) agar. TSA agar is a non-selective, general purpose media. Macx agar is a selective, differential culture media for Gram-negative enteric bacilli. The agar plates are incubated 24 hours at 37° C. and then scored for bacterial growth.
Bacterial growth is scored using a Most Probable Number (MPN) calculation.

[2] = tested on: A. brasiliensis ATCC 16404
Description: (§3) 24 and 48 hour test cultures of S. aureus, as well as all A. brasiliensis and C. difficile are prepared with 0.1% Triton X-100. A 6 hour test culture of S. aureus is prepared with 5.0% Petal Bovine Serum and no Triton. Carriers (slides) are inoculated, in duplicate per test microorganism per condition, at a target concentration of 1×10^6 CPU/Carrier. Inoculated carriers are allowed to dry at ambient temperatures, and are then placed in respective conditions to endure contact times. Carriers for S. aureus endured contact times of 6, 24, and 48 hours. Carriers for A. brasiliensis endured contact times of 12, 24, and 48 hours. […] After respective contact times, carriers are harvested in 10.0 mL of D/E Broth, vortex mixed, diluted, and plated on the appropriate growth media for each microorganism. Environmental conditions are monitored using the Drager Rohrchen, and Drager Polytron methods described in Example 1. (Note: The limit of detection for this assay is 5.0 CPU. Samples with no detectable colonies are listed as <5.00E+OO in the table).

[3] = tested on: Other blue green; conditions: hatchery after DHP treatment
Source text: (§1) Hatcheries and chick production facilities are subject to heavy bacterial loads that are difficult to control. In addition to the animals themselves, there is a significant contamination of the facilities from the outside.

[4] = tested on: Total bacteria; conditions: hatchery after DHP treatment
Source text: as §1

[5] = tested on: Influenza A (H1N1)
Description: Glass slides (1″×3″) are ethanol-sanitized and autoclaved prior to testing. The slides (carriers) are placed into sterile plastic petri dishes until use. Aliquots (0.010 ml) of diluted stock Influenza A (H1N1) are aseptically spread over a 1″×1″ square area of the carrier slide to prepare a virus film.
Virus Control carriers are placed into an adjacent modular room with the lids removed. One additional glass slide (with no virus film) is also placed into each testing chamber to perform cytotoxicity and neutralization validation controls. Upon closure of the respective study contact times (T=60 min and T=120 min), duplicate carriers are removed from each testing chamber. Duplicate carriers are also removed from the control modular room at each time point. Duplicate time zero carriers are harvested and enumerated promptly by eluting the films with 2 ml of influenza Infection Medium. Serial dilutions (1:10) are performed and dilutions 10−^1 to 10−^5 are plated in quadruplicate onto Madin-Darby Canine Kidney (MDCK) cell monolayers prepared to suitable confluency. Cell culture assay trays are incubated at 35° C. on an orbital rotator (60 rotations/minute) for 60 minutes to facilitate viral-host adsorption. Trays are removed from incubation, and Influenza infection Media is pipetted into each well (−1.0 ml). The trays are incubated for 7 days. The assay trays are observed regularly for the presence of cytotoxicity, viral cytopathic effects, and contamination. At the end of 7 days, plates are scored and the Spearman-Karber Method is used to compute viral titers and levels of cytotoxicity.

[6] = tested on: bacteria; conditions: end of test period (30 days), three locations
Description: In addition, bacterial contamination in the egg room is assessed by placing blood agar plates at three locations in the room (East, North, and West) at 0, 7, and 30 days, and bacterial growth is assessed after 24 hours.

[7] = tested on: broilers
Source text: The chicks hatched according to the methods of Examples 2 and 3 are shipped to a broiler facility and raised to maturity. No additional changes to grow-out methods are made. A total of about 4 million eggs are set per month and the saleable chicks are sent to the grow-out facility. […] The wholesale price of a broiler is currently estimated at $0.85 per pound. […] See the nationalchickencouncil.org available on the web.

[8] = tested on: Aspergillus fumigatus; conditions: hatchery after DHP treatment
[9] = tested on: S. aureus ATCC 33592 (MRSA)
Description: as §3

[10] = tested on: chicks
Description: Hatching eggs are obtained from a breeder farm and the eggs are subjected to standard egg cleaning and preparation procedures. Hatched chicks are collected and prepared according to standard procedures (separation of eggshells and unhatched eggs, counted, etc.). Chicks are graded according to established methods. See van de Ven et al., “Significance of chick quality score in broiler production,” Animal 6(10):1677-1683; Boerjan, “Programs for single stage incubation and chick quality,” Avian Poultry Biology Reviews 13:237-238 (2002); Tona et al, “Effects of egg storage time on spread of hatch, chick quality and chick juvenile growth,” Poultry Science 82:736-741 (2003).
As indicated, certain studies were performed at Western Hatchery in Abbotsford, British Columbia, Canada (“Western”), under the supervision of the inventors and assignee. Approximately 4 million eggs per month are processed through the hatchery.
The egg room is contiguous to the loading and receiving area of the facility and is exposed to the outside during deliveries for up to 2 to 3 hours daily. […] In addition to the incoming eggs, the egg room includes excess shipping boxes and pallets.
In June 2016, the egg room and facilities are modified to add a vestibule to the loading dock with plastic curtains and upgrading the HVAC system to provide a third supply duct. […] The use of the egg room is further modified to remove unnecessary equipment including, but not limited to, pallets, cardboard boxes, and crates.
Setter incubators are set to industry standard conditions: temperature between 37° C. and 38° C. and relative humidity between 40% and 70%.
FIG. 6 presents the percent hatching of first quality chicks.

[11] = tested on: bacteria on commercial eggs
Description: as §2
A similar experiment is performed under egg cooler conditions. […] In this experiment, 300 commercial eggs are placed in the cooler and twenty (20) eggs are sampled, four times over five (5) days at 0 hours, 24 hours, 72 hours, and 120 hours as described above.

[12] = Modular Room, 120 minutes contact

OO [DHP, dry hydrogen peroxide]
number of bacteria growing on TSA ([1]; after 72 hours): significantly reduced | number of bacteria growing on TSA ([1]; after 120 hours): significantly reduced | Average CFU/Carrier ([2]; 12 Hours, Hood (Treated)): 2.18E+06 CFU/Carrier | Log Reduction compared to Control ([2]; 12 Hours, Hood (Treated)): 0.02 Log | Percent Reduction compared to Control ([2]; 12 Hours, Hood (Treated)): 4.40% | Average CFU/Carrier ([2]; 12 Hours, Room (Treated)): 3.10E+06 CFU/Carrier | Log Reduction compared to Control ([2]; 12 Hours, Room (Treated)): None | Percent Reduction compared to Control ([2]; 12 Hours, Room (Treated)): None | Average CFU/Carrier ([2]; 24 Hours, Hood (Treated)): 9.75E+05 CFU/Carrier | Log Reduction compared to Control ([2]; 24 Hours, Hood (Treated)): 0.29 Log | Percent Reduction compared to Control ([2]; 24 Hours, Hood (Treated)): 48.68% | Average CFU/Carrier ([2]; 24 Hours, Room (Treated)): 1.43E+06 CFU/Carrier | Log Reduction compared to Control ([2]; 24 Hours, Room (Treated)): 0.12 Log | Percent Reduction compared to Control ([2]; 24 Hours, Room (Treated)): 25.00% | Replicate CFU/Carrier ([2]; 24 Hours, Room (Treated)): 1.75E+06 CFU/Carrier | Average CFU/Carrier ([2]; 48 Hours, Hood (Treated)): 6.75E+05 CFU/Carrier | Log Reduction compared to Control ([2]; 48 Hours, Hood (Treated)): 0.28 Log | Percent Reduction compared to Control ([2]; 48 Hours, Hood (Treated)): 47.06% | Average CFU/Carrier ([2]; 48 Hours, Room (Treated)): 1.70E+06 CFU/Carrier | Log Reduction compared to Control ([2]; 48 Hours, Room (Treated)): None | Percent Reduction compared to Control ([2]; 48 Hours, Room (Treated)): None | Post [3]: 56 | Reduction [4]: over 90% | Log10 ([5]; Hood Chamber, 60 minutes contact): >=2.62 Log10 | Log10 ([5]; Hood Chamber, 120 minutes contact): >=1.87 Log10 | % Reduction ([5]; Modular Room, 60 minutes contact): 87% | Log10 ([5]; Modular Room, 60 minutes contact, DHP 0.6-1.0 ppm): 0.87 Log10 | % Reduction [5, 12]: 76% | Log10 [5, 12]: 0.62 Log10 | number of bacterial colonies on the blood agar plates, total [6]: about 30 | Mortality Rate ([7]; After DHP, grow-out facility): 2.2% | Net increase(# Chicks) ([7]; After DHP, per 4,000,000 eggs set): 62,000 | Broilers raised ([7]; After DHP, per month): 3,161,678 | reduction of mortality at the grow-out facility ([7]; chicks from DHP treated eggs): about 7.8% | Post [8]: 1 | % Reduction compared ([9]; 6 Hours, Hood (Treated)): 95.150% | Log Reduction compared to ([9]; 6 Hours, Hood (Treated)): 1.31 Log | % Reduction compared ([9]; 6 Hours, Room (Treated)): 83.053% | Log Reduction compared to ([9]; 6 Hours, Room (Treated)): 0.77 Log | % Reduction compared ([9]; 24 Hours, Hood (Treated)): >66.667% | Log Reduction compared to ([9]; 24 Hours, Hood (Treated)): >0.48 Log | Replicate CFU/Carrier ([9]; 24 Hours, Hood (Treated)): <5.00E+00 CFU/Carrier | % Reduction compared ([9]; 24 Hours, Room (Treated)): >88.889% | Average CFU/Carrier ([9]; 24 Hours, Room (Treated)): <5.00E+00 CFU/Carrier | Log Reduction compared to ([9]; 24 Hours, Room (Treated)): >0.95 Log | Replicate CFU/Carrier ([9]; 24 Hours, Room (Treated)): 5.00E+00 CFU/Carrier and <5.00E+00 CFU/Carrier | % Reduction compared ([9]; 48 Hours, Hood (Treated)): >78.947% | Log Reduction compared to ([9]; 48 Hours, Hood (Treated)): >0.68 Log | Replicate CFU/Carrier ([9]; 48 Hours, Hood (Treated)): <5.00E+00 CFU/Carrier | % Reduction compared ([9]; 48 Hours, Room (Treated)): >89.474% | Average CFU/Carrier ([9]; 48 Hours, Room (Treated)): <5.00E+00 CFU/Carrier | Log Reduction compared to ([9]; 48 Hours, Room (Treated)): >0.98 Log | Replicate CFU/Carrier ([9]; 48 Hours, Room (Treated)): <5.00E+00 CFU/Carrier | percent hatching of first quality chicks ([10]; after installation of DHP to setter incubator environment, about 0.5 ppm in room): 83% | After Modification Cull Rate(%), Average ([10]; average of months): 1.65% | After Modification First Quality Chick (% Hatched), Average ([10]; average of months): 80.82% | additional birds available for shipping to the grow-out facility ([10]; egg room DHP): about 4,000 birds | cull rate lower than before DHP modification ([10]; egg room DHP): at least 1% | growth on Mac, treated group ([11]; 72 hours compared to 0 hours, p=0.001): significantly less growth | growth on Mac, treated group ([11]; 120 hours compared to 0 hours, p=0.0001): significantly more growth | growth on Mac, treated group ([11]; 120 hours compared to 0 hours, p=0.05): significantly less growth | Mac growth with treatment ([11]; egg cooler, 0-120 hours): low throughout | TSA growth with treatment ([11]; egg cooler, 0-120 hours): static until 120 hours
